# In patent US9428507B2, “Compounds for the treatment of malaria” (The Broad Institute, Inc., priority 2013, dated 2016):
# Test system: Dd2 strain of P. falciparum
# Assay: Activity against the Dd2 strain of P. falciparum (SYBR Green I, 72-h incubation)
# Type: cell-based
# Settings: Plasmodium falciparum, DD2, 72 h, read-out: EC^50 Dd2
# Method in brief: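 Dd2 parasites at 1% parasitemia and 1.0% hematocrit in albumax II screening medium, 72 h at 37° C under 93% N2/4% CO2/3% O2; final DMSO 0.125%. Growth read as SYBR Green I fluorescence (485/530 nm) after lysis and 24 h staining. 20 μM mefloquine defined background, DMSO baseline.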
row,Compound,EC50 [nM]
1,"COc1cccc(CN2CC3(CCN(Cc4ccccn4)CC3)c3c([nH]c4cc(OC)ccc34)[C@@H]2CO)c1 [Compound 127, (R)-(7′-methoxy-2′-(3-methoxybenzyl)-1-(pyridin-2-ylmethyl)-1′,2′,3′,9′-tetrahydrospiro [pipendine-4,4′-pyrido[3,4-b]indol]-1′-yl) methanol]",1790
2,"COc1ccc2c3c(n(C)c2c1)[C@@H](CO)NCC31CCN(Cc2ccc(-c3ccccn3)cc2)CC1 [Compound 130, (S)-(7′-methoxy-9′-methyl-1-(4-(pyridin-2-yl)benzyl)-1′,2′,3′,9′-tetrahydrospiro[piperidine-4,4′-pyrido[3,4-b]indol]-1′-yl)methanol]",439
3,"COc1ccc2c3c(n(C)c2c1)[C@@H](CO)N(Cc1ccc(Cl)cc1)CC31CCN(CC2CC2)CC1 [Compound 132, (S)-(2′-(4-chlorobenzyl)-1-(cyclopropylmethyl)-7′-methoxy-9′-methyl-1′,2′,3′,9′-tetrahydrospiro [piperidine-4,4′-pyrido[3,4-b]indol]-1′-yl) methanol]",1670
4,"COc1ccc2c3c([nH]c2c1)[C@@H](CO)N(Cc1ccncc1)CC31CCN(Cc2ccc(-c3ccccn3)cc2)CC1 [Compound 133, (S)-(7′-methoxy-1-(4-(pyridin-2-yl)benzy1)-2′-(pyridin-4-ylmethyl)-1′,2′,3′,9′-tetrahydrospiro [piperidine-4,4′-pyrido[3,4-b]indol]-1′-yl)methanol]",613
5,"COc1ccc2c3c([nH]c2c1)[C@H](CO)N(Cc1ccncc1)CC31CN(Cc2ccc(-c3ccccn3)cc2)C1 [Compound 134, (R)-(7′-methoxy-1-(4-(pyridin-2-yl)benzyl)-2′-(pyridin-4-ylmethyl)-1′,2′,3′,9′-tetrahydrospiro [azetidine-3,4′-pyrido[3,4-b]indol]-1′-yl)methanol]",2970
6,"COc1ccc2c3c(n(C)c2c1)[C@H](CO)N(Cc1ccc(Cl)cc1)CC31CCN(CC2CC2)CC1 [Compound 135, (R)-(2′-(4-chlorobenzyl)-1-(cyclopropylmethyl)-7′-methoxy-9′-methyl-1′,2′,3′,9′-tetrahydrospiro [piperidine-4,4′-pyrido[3,4-b]indol]-1′-yl) methanol]",2230
7,"COc1ccc2c3c([nH]c2c1)[C@H](CO)N(C(C)=O)CC31CCN(c2nc3ccccc3s2)CC1 [Compound 137, (R)-1-(1-(benzo[d]thiazol-2-yl)-1′-(hydroxymethyl)-7′-methoxyspiro [piperidine-4,4′-pyrido[3,4-b]indol]-2′(1′H,3′H,9′H)-yl) ethanone]",5760
8,"CC(=O)Oc1ccc2c3c([nH]c2c1)[C@H](CO)N(C(C)=O)CC31CCN(C(=O)Nc2ccccc2F)CC1 [Compound 138, (R)-1-(1-(benzo[d]thiazol-2-yl)-1′-(hydroxymethyl)-7′-methoxyspiro [piperidine-4,4′-py(R)-2′-acetyl-1-((2-fluorophenyl)carbamoyl)-1′-(hydroxymethyl)-1′,2′,3′,9′-tetrahydrospiro [piperidine-4,4′-pyrido[3,4-b]indol]-7′-ylacetaterido[3,4-b]indol]-2′(1′H,3′H,9′H)-yl)ethanone]",4500
9,"COc1cc2[nH]c3c(c2cc1OC)C1(CCN(C(=O)Nc2ccccc2F)CC1)CN(C(C)=O)[C@H]3CO [Compound 139, (R)-2′-acetyl-N-(2-fluorophenyl)-1′-(hydroxymethyl)-6′,7′-d imethoxy-1′,2′,3′,9′-tetrahydrospiro [piperidine-4,4′-pyrido[3,4-b]indole]-1-carboxamide]",5760
10,"COc1ccc2c3c([nH]c2c1)[C@H]1COCC(=O)N1CC31CCN(C(=O)Nc2ccccc2F)CC1 [Compound 140, (S)-N-(2-fluorophenyl)-10-methoxy-4-oxo-1,3,4,6,12,12b-hexahydrospiro [[1,4]oxazino[4′,3′:1 ,2]pyrido[3,4-b]indole-7,4′-piperidine]-1′-carboxamide]",2470
11,"CC(=O)N1CC2(CCN(C(=O)Nc3ccccc3F)CC2)c2c([nH]c3cc(OC(C)C)ccc23)[C@@H]1CO [Compound 141, (R)-2′-acetyl-N-(2-fluorophenyl)-1′-(hydroxymethyl)-7′-isopropoxy-1′,2′,3′,9′-tetrahydrospiro [piperidine-4,4′-pyrido[3,4-b]indole]-1-carboxamide]",6710
12,"CC(=O)N1CC2(CCN(C(=O)Nc3ccccc3F)CC2)c2c([nH]c3cc(O)ccc23)[C@@H]1CO [Compound 142, (R)-2′-acetyl-N-(2-fluorophenyl)-7′-hydroxy-1′-(hydroxymethyl)-1′,2′,3′,9′-tetrahydrospiro [piperidine-4,4′-pyrido[3,4-b]indole]-1-carboxamide]",6040
13,"COc1ccc2c3c([nH]c2c1)[C@H](CO)N(Cc1ccccc1)CC31CCN(C(=O)Nc2ccccc2F)CC1 [Compound 143, (R)-2′-benzyl-N-(2-fluorophenyl)-1′-(hydroxymethyl)-7′-methoxy-1′,2′,3′,9′-tetrahydrospiro [piperidine-4,4′-pyrido[3,4-b]indole]-1-carboxamide]",5000

# The next lines start with the values.
row,EC50 [nM],Compound
1,343,"COc1ccc2c3c(n(C)c2c1)[C@@H](CO)N(C(=O)C1CC1)CC31CCN(C(=O)Nc2cccc(F)c2)CC1 [Compound 125, (S)-2′-(cyclopropanecarbonyl)-N-(3-fluorophenyl)-1′-(hydroxymethyl)-7′-methoxy-9′-methyl-1′,2′,3′,9′-tetrahydrospiro [piperidine-4,4′-pyrido[3,4-b]indole]-1-carboxamide]"
2,437,"COc1ccc(NC(=O)N2CC3(C2)CN(C(=O)C2CCC2)[C@H](CO)c2c3c3ccc(OC)cc3n2C)cc1 [Compound 126, (S)-2′-(cyclobutanecarbonyl)-1′-(hydroxymethyl)-7′-methoxy-N-(4-methoxyphenyl)-9′-methyl-1′,2′,3′,9′-tetrahydrospiro [azetidine-3,4′-pyrido[3,4-b]indole]-1-carboxamide]"
3,750,"COc1ccc2c3c([nH]c2c1)[C@H](CO)N(C(=O)Nc1ccc(F)cc1)CC31CCN(S(=O)(=O)c2cccc(F)c2)CC1 [Compound 128, (R)-N-(4-fluorophenyl)-1-((3-fluorophenyl)sulfonyl)-1′-(hydroxymethyl)-7′-methoxy-3′,9′-dihydrospiro [piperidine-4,4′-pyrido[3,4-b]indole]-2′(1′H)-carboxamide]"
4,794,COc1ccc2c3c(n(C)c2c1)[C@@H](CO)N(C(=O)c1ccc(F)cc1)CC31CCN(C(=O)Nc2ccc(F)cc2)CC1 [Compound 129]
5,892,"COc1ccc2c3c(n(C)c2c1)[C@H](CO)N(C(=O)Nc1ccc(F)cc1)CC31CCN(C(=O)c2ccc3c(c2)OCO3)CC1 [Compound 131, (R)-1-(benzo[d] [1,3]dioxole-5-carbonyl)-N-(4-fluorophenyl)-1′-(hydroxymethyl)-7′-methoxy-9′-methyl-3′,9′-dihydrospiro [piperidine-4,4′-pyrido[3,4-b]indole]-2′(1′H)-carboxamide]"
6,2470,"COc1ccc2c3c([nH]c2c1)[C@H](CO)N(C(C)=O)CC31CCN(c2nc3ccccc3[nH]2)CC1 [Compound 136, (R)-1-(1-(1H-benzo[d]imidazol-2-yl)-1′-(hydroxymethyl)-7′-methoxyspiro[piperidine-4,4′-pyrido[3,4-b]indol]-2′(1′H,3′H,9′H)-yl) ethanone]"
